In publication PMC7597670 (Bioorganic & medicinal chemistry letters, 2010):

Columns and labels:
[1] = Pharmacokinetics after single oral and intravenous administration in rats; details: for BA: rats, 10 mg/kg po vs 3 mg/kg iv; for AUC / Cmax: rat, plasma, po, 10 mg/kg
human CCR5 = human CCR5 (Homo sapiens, UniProt P51681); assay type: cell-based; details: versus the other three stereoisomers of the hydroxylated analog of 1
HIV-1MM (R5MDR) = details: read-out: Anti-HIV-1 activity IC50 HIV-1MM (R5MDR); inhibition of HIV p24 antigen expression in PBMC; multidrug-resistant
HIV-1Ba-L (R5) = assay: Anti-HIV-1 activity: inhibition of HIV p24 antigen expression in PBMC, HIV-1Ba-L; assay type: cell-based; details: read-out: Anti-HIV-1 activity IC50 HIV-1Ba-L (R5)

Sequence of human CCR5 (P51681 whole entry): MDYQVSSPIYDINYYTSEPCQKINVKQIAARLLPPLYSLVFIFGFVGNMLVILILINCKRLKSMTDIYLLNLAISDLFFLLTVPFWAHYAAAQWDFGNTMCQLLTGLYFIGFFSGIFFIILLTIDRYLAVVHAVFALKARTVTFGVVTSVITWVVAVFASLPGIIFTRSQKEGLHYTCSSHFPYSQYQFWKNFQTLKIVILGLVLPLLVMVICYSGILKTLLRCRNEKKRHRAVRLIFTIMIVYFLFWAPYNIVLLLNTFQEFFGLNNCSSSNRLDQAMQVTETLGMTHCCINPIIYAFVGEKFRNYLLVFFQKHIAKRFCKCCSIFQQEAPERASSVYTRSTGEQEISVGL

Molecule | BA [1] | AUC [1] | Cmax [1] | other results
CCCCN1C(=O)[C@H](CC2CCCCC2)NC(=O)C12CCN(Cc1ccc(Oc3ccc(C(=O)O)cc3)cc1)CC2.Cl [Compound 5] | 34% | – | – | –
CCCCN1C(=O)[C@@H]([C@H](O)C(C)C)NC(=O)C12CCN(Cc1ccc(Oc3ccccc3)cc1)CC2.Cl [Compound 3] | – | – | – | fold higher potency than the other isomers in Ca assay (human CCR5): 4.5-12 fold
CCCCN1C(=O)C(CC2CCCCC2)NC(=O)C12CCN(Cc1ccc(Oc3ccccc3)cc1)CC2.Cl (stereo not drawn) [Compound 2] | 1.9% | 0.0248 µg·h/mL | 0.0056 µg/mL | –
CCCCN1C(=O)C(CC(C)C)NC(=O)C12CCN(Cc1ccc(Oc3ccccc3)cc1)CC2.Cl (stereo not drawn) [Compound 1] | – | 0.0967 µg·h/mL | 0.0333 µg/mL | –
SCH-351125 | – | – | – | IC50 (HIV-1MM (R5MDR)): 3 ± 0.5 nM; IC50 (HIV-1Ba-L (R5)): 4 ± 2 nM
